Columns and labels:
HREC [1] = experiment: cAMP content of intact HRECs; assay type: cell-based, human
Text: The cAMP content of intact HRECs following treatment with adenosine receptor agonists and antagonists was next examined. […] The effect of selective A1 and A2A adenosine receptor antagonists on NECA-induced accumulation of cAMP was also examined.

HREC [2] = experiment: BrdU incorporation (DNA synthesis) in HRECs; assay type: cell-based, human; conditions: for Proliferation BrdU Incorporation: HREC, agonists 10 μm, with NECA: CPX 20 nM, SCH 60 nM, XAC 10 μm, * p < 0.005 vs untreated
Procedure: (§1) The subtype of adenosine receptor (A2B) that mediates the proliferative effect of adenosine on HREC was determined by the following studies. […] In contrast, neither the A2A adenosine receptor agonist CGS21680 (2-p-(2-carboxyethyl) phenethylamino-5′-N-ethylcarboxamidoadenosine) at concentrations ranging from 10 nM to 10 μM, nor the A1 adenosine receptor agonist CPA (N^6-cyclopentyladenosine) at concentrations ranging from 10 nM to 10 μM increased BrdU incorporation by HRECs. […] In contrast, neither the selective A1 adenosine receptor antagonist CPX (8-cyclopentyl-1,3-dipropylxanthine) at 20 nM, nor the selective A2A adenosine receptor antagonist SCH58261 (5-amino-7-(2-phenylethyl)-2-(2-furyl)-pyrazolo(4,3-E)-1,2,4-trizolo(1,5-c) pyrimidine) at 60 nM attenuated the stimulatory effect of NECA on BrdU incorporation by HRECs. These findings indicate that the proliferative effects of NECA are mediated by the A2B adenosine receptor in HREC in culture (Table 3).

HREC [3] = experiment: HREC proliferation, cell count; assay type: cell-based, human; conditions: for Proliferation Cell Count: HREC, agonists 10 μm, with NECA: CPX 20 nM, SCH 60 nM, XAC, Enprofylline, JW V108 10 μm, * p < 0.005 vs untreated; for increase in HREC number: agonist alone, 48 hr
Procedure: as §1
The data for cell counts were consistent with those for BrdU incorporation. […] These compounds, like XAC, blocked the proliferative effects of NECA as measured by cell counts, supporting that the proliferative effects of NECA on HREC are mediated by the adenosine A2B receptor (Table 3).

HREC [4] = experiment: VEGF mRNA in HREC after adenosine receptor agonists and antagonists; assay type: cell-based, human; conditions: agonists 10 μm, with NECA: CPX 20 nM, SCH 60 nM, XAC 10 μm, * p < 0.005 vs untreated
HREC [5] = experiment: VEGF protein in HREC after adenosine receptor agonists and antagonists; assay type: cell-based, human; conditions: agonists 10 μm, with NECA: CPX 20 nM, SCH 60 nM, XAC 10 μm, * p < 0.005 vs untreated
HREC [6] = experiment: ERK/MAPK activation in HREC, Western blot; assay type: cell-based, human; conditions: for ERK activation by agonist: agonist alone; for effect on NECA-stimulated ERK activation: HREC pretreated with antagonist or inhibitor, then NECA
Procedure: HREC were serum-starved for 24 hr and pre-treated for 20 min with 1 U/mL adenosine deaminase prior to adding NECA. Activated ERK/MAPK was visualized on Western blots by enhanced chemiluminescence using EC10 monoclonal antibody;
HRECs were serum-starved for 24 hr and pre-treated with adenosine deaminase (ADA, 1 U/mL) for 20 min, incubated with the antagonists in the presence of ADA for 10 min. NECA (1 nM-10 μM, 10 min) was used to activate ERK.
In order to determine the intracellular signaling pathways activated by NECA that regulate ERK activity, we pretreated cells for 30 min with the ERK/MPAK kinase (MEK) inhibitor PD98059 or the PKA inhibitor H-89 and stimulated with NECA for 5 min.
Cells were pre-treated with both antagonists for 10 min and stimulated with increasing concentrations of NECA.

HREC [7] = experiment: HREC chemotaxis; assay type: cell-based, human
Text: The role of the A2B receptor was further characterized by examining the effects of the A2B antagonists JW V108 and Enprofylline on HREC chemotaxis, capillary tube formation and signal transduction pathways following stimulation with the adenosine analogue NECA.

[8] = tested on: oxygen-induced retinal neovascularization; experiment: Oxygen-induced retinal neovascularization in the neonatal mouse; assay type: in vivo; conditions: daily IP 30 mg/Kg body weight; vs uninjected control
Text: The potential efficacy of administering adenosine receptor antagonists to reduce retinal neovascularization brought on by ischemic insult was examined. In the neonatal mouse model of oxygen-induced retinopathy, 7-day-old mice are placed with their nursing dams in a 75% oxygen atmosphere for 5 days. Upon return to normal air, these mice develop retinal neovascularization, with peak development occurring 5 days after their return to normoxia. During this time, the animals receive by daily intaperitoneal injection a pharmacologically relevant concentration of adenosine receptor antagonist or vehicle (0.15% vol./vol. DMSO in normal saline) alone. Exemplary antagonists tested include XAC and 3-n-propylxanthine (Enprofylline), and JW V108, both at a concentration of 30 mg/Kg of body weight. […]
Individuals masked to the identity of treatment counted all cell nuclei above the inner limiting membrane for all 20 sections from each eye. […] The efficacy of treatment with a particular antagonist was then calculated as the fraction of total nuclei in antagonist or vehicle treatment over total nuclei in uninjected control. […] Whole retinas from these eyes were then flat-mounted for qualitative assessment of retinal neovascularization by fluorescence microscopy.

HREC [9] = experiment: CREB phosphorylation at Ser133 in HREC, western blot; assay type: cell-based, human; conditions: HREC pretreated
Text: Phosphorylation of cAMP response element binding protein (CREB) at Ser^133 was examined following NECA stimulation in order to determine whether activation of cAMP pathways by NECA occurred independently of ERK activation. Cells were pretreated with PD98059 or H-89 and assayed for active CREB by western blot.

SMILES | CAMP Content (HREC [1]; HREC, agonists 10 μm, with NECA: CPX 20 nM, SCH 60 nM, XAC 10 μm, * p < 0.005 vs untreated) [fold change vs. untreated] | effect on cAMP content of HREC (HREC [1]; agonist alone, concentrations up to 100 μM) | Proliferation BrdU Incorporation (HREC [2]) [fold change vs. untreated] | Proliferation Cell Count (HREC [3]) [fold change vs. untreated] | increase in HREC number (HREC [3]) | VEGF MRNA (HREC [4]) [fold change vs. untreated] | VEGF Protein (HREC [5]) [fold change vs. untreated] | ERK activation by agonist (HREC [6]; HREC) | basal ERK activation (HREC [6]; HREC, CGS 1-10 μM, H-89 30 min pretreatment) | inhibition of NECA-induced HREC chemotaxis (HREC [7]) | inhibition of oxygen-induced retinal neovascularization [8] [%] | effect on NECA-stimulated ERK activation (HREC [6]) | inhibition of NECA-induced increase in cAMP content in HRECs (HREC [1]; NECA 10 μM) | attenuation of NECA-stimulated BrdU incorporation by HRECs (HREC [2]; XAC 10 μM, CPX 20 nM, SCH58261 60 nM) | inhibition of increase in cell number induced by NECA (HREC [3]; 10 μM NECA) | CREB activation (phosphorylation) following NECA stimulation (HREC [9])
CCNC(=O)[C@H]1O[C@@H](n2cnc3c(N)nc(NCCc4ccc(CCC(=O)O)cc4)nc32)[C@H](O)[C@@H]1O [CGS21680, 2-p-(2-carboxyethyl) phenethylamino-5′-N-ethylcarboxamidoadenosine] | 1.1 ± 1.02 | no significant effect | 1.0 ± 0.08 | 1.1 ± 0.03 | neither CGS21680 nor CPA caused an increase in cell number | 0.8 ± 0.37 | 1.3 ± 0.20 | did not activate ERK | reduced the basal ERK levels |  |  |  |  |  |  | 
OC[C@H]1O[C@@H](n2cnc3c(NC4CCCC4)ncnc32)[C@H](O)[C@@H]1O [CPA, N^6-cyclopentyladenosine] |  |  | 0.8 ± 0.06 | 0.9 ± 0.04 | neither CGS21680 nor CPA caused an increase in cell number | 1.1 ± 0.22 | 1.1 ± 0.27 | capable of stimulating ERK |  |  |  |  |  |  |  | 
CCCn1c(=O)[nH]c(=O)c2[nH]cnc21 [Enprofylline, 3-n-propylxanthine] |  |  |  |  |  |  |  |  |  | inhibited | 70 | completely abolished ERK activation |  |  |  | 
CCCn1c(=O)c2[nH]c(-c3ccc(OCC(=O)NCCN)cc3)nc2n(CCC)c1=O [XAC, xanthine amine congener] |  |  |  |  |  |  |  |  |  |  | 54 | decreased ERK activation by high concentrations of NECA | completely blocked | completely prevented | significantly inhibited | blocked CREB phosphorylation
